Data published in patent US20030065039A1, “Biologically active 1,3-bis-aromatic-prop-2-en-1-ones, 1,3-bis-aromatic-propan-1-ones, and 1,3-bis-aromatic-prop-2-yn-1-ones” (Statens Serum Institute, priority 1997, published 2003).

Columns and labels:
[1] = test system: TNF-α; test: Extracellular TNF-α of human mononuclear cells (supernatant); assay type: cell-based; conditions: for inhibition at 3.125 µg/mL: compound 3.125 μg/ml; for inhibition at 6.25 µg/mL: compound 6.25 μg/ml; for inhibition at 12.5 µg/mL: compound 12.5 μg/ml
Protocol: Incubation condition: Cells and mitogen added at the same time and the compound solution added immediately after in polypropylene tubes and incubated at 37° C. in CO2 incubator overnight. The following day the cells and the supernatant were harvested for TNF-α determination. Incubation condition: Cells and mitogen added at the same time and the compound solution added immediately after in polypropylene tubes and incubated at 37° C. in CO2 incubator overnight. The following day the cells and the supernatant were harvested for TNF-α determination.

[2] = test system: TNF-α; test: Intracellular TNF-α in human mononuclear cells (flow cytometry); assay type: cell-based; conditions: for % TNFα- producing cells: DMSO 10.1; for inhibition at 12.5 µg/mL / inhibition at 25 µg/mL / inhibition at 3.125 µg/mL / inhibition at 6.25 µg/mL: Homo sapiens
Protocol: [table] Incubation condition: Cells and mitogen added at the same time and the compound solution added immediately after in polypropylene tubes and incubated at 37° C. in CO2 incubator overnight. The following day the cells and the supernatant were harvested for TNF-α determination. Incubation condition: Cells and mitogen added at the same time and the compound solution added immediately after in polypropylene tubes and incubated at 37° C. in CO2 incubator overnight. The following day the cells and the supernatant were harvested for TNF-α determination.

[3] = test system: Reovirus-1; test: Antiviral activity in Vero cell cultures; assay type: cell-based; conditions: Vero cells; values given as fractions
Protocol: (§1) IC50 values are determined by the virus plaque formation and/or the virus cytopathic assay using standard methods well-known in the art.
(§2) In the following is reported the results from a Vero cell culture infected with different viruses. The cell culture used as well as the methods applied are well known to a person skilled in the art.

[4] = test system: Sindbis virus; test: Antiviral activity in Vero cell cultures; assay type: cell-based; conditions: Vero cells; values given as fractions
Protocol: as §1, §2

[5] = test system: Coxsackie virus B4; test: Antiviral activity in Vero cell cultures; assay type: cell-based; conditions: Vero cells; values given as fractions
Protocol: as §1, §2

[6] = test system: Parainfluenza-3 Virus; test: Antiviral activity in Vero cell cultures; assay type: cell-based; conditions: Vero cells; values given as fractions
Protocol: as §1, §2

[7] = test system: Simliki forest virus; test: Antiviral activity in Vero cell cultures; assay type: cell-based; conditions: Vero cells; values given as fractions
Protocol: as §1, §2

[8] = test system: IL-1α; test: Intracellular cytokine staining in stimulated human mononuclear cells; assay type: cell-based; conditions: 25 μg/ml compound, 2 hours preincubation
Protocol: (§3) Therefore, experiments were performed to examine the effect of Licochalcone A and SBC-35ma on secretion of TNF-α from the stimulated cells. These experiments included detection of the cytokines in the cell lysate by ELISA and staining of the intracellular cytokines by using monoclonal antibodies against these cytokines and cytokine receptors.
(§4) Table 3. Effect of Licochalcone A and SBC-35ma on the presence of intracellur cytokines in the human peripheral blood mononuclear cells stimulated either with a malarial exoantigen SPAG (diluted 1:12.5) or bacterial LPS (diluted 1:1000). The cells were preincubated with 25 μg/ml of each of the compounds for 2 hours and then incubated in the presence of antigens at 37° C. overnight. The cells were permeabilized and then fixed in paraformaldehyde Cytokine specific monoclonal antibodies were used for the detection of positive cells for each cytokine. Data are presented as percentages of positive cells for each cytokine.

[9] = test system: TNF-α; test: as above; assay type: cell-based; conditions: 25 μg/ml compound
Protocol: as §3, §4

[10] = test system: IL-1β; test: as above; assay type: cell-based; conditions: 25 μg/ml compound
Protocol: as §3, §4

[11] = test system: IL-6; test: as above; assay type: cell-based; conditions: 25 μg/ml compound
Protocol: as §3, §4

[12] = test system: IL-4; test: as above; assay type: cell-based; conditions: 25 μg/ml compound
Protocol: as §3, §4

[13] = Preliminary 14 days oral toxicity study in rats; assay type: in vivo; conditions: highest dose level 1000 mg/kg/day
Protocol: A preliminary 14 days oral toxicity study in rats was carried out with 6 compounds. Observations included clinical signs, body weights, food intake, haematology, clinical chemistry and macroscopic pathology.

[14] = test system: TNF-α; test: TNF-α in lysate of stimulated human mononuclear cells (ELISA); assay type: cell-based; conditions: cells preincubated with compound, stimulated with SPAG or LPS
Protocol: as §3

[15] = 1b Experiment 1, LPS 0.5 μg/ml, compound 12.5 μg/ml, DMSO 13.8
[16] = 1b Experiment 1, LPS 0.5 μg/ml, compound 25.0 μg/ml, DMSO 13.8
[17] = 1b Experiment 2, LPS 1 μg/ml, compound 3.125 μg/ml, DMSO 4.0
[18] = 1b Experiment 2, LPS 1 μg/ml, compound 6.25 μg/ml, DMSO 4.0
[19] = 1b Experiment 2, LPS 1 μg/ml, compound 12.5 μg/ml, DMSO 4.0
[20] = 1b Experiment 3, LPS 1 μg/ml, compound 3.125 μg/ml
[21] = 1b Experiment 3, LPS 1 μg/ml, compound 6.25 μg/ml
[22] = 1b Experiment 3, LPS 1 μg/ml, compound 12.5 μg/ml
[23] = 1b Experiment 4, LPS 1 μg/ml, compound 3.125 μg/ml, DMSO 14.6
[24] = 1b Experiment 4, LPS 1 μg/ml, compound 6.25 μg/ml, DMSO 14.6
[25] = 1b Experiment 4, LPS 1 μg/ml, compound 12.5 μg/ml, DMSO 14.6
[26] = 1b Experiment 1, LPS 0.5 μg/ml, compound 12.5 μg/ml, read-out: % inhibition
[27] = 1b Experiment 1, LPS 0.5 μg/ml, compound 25.0 μg/ml
[28] = 1b Experiment 2, LPS 1 μg/ml, compound 3.125 μg/ml
[29] = 1b Experiment 2, LPS 1 μg/ml, compound 6.25 μg/ml, read-out: Intracellular % inhibition
[30] = 1b Experiment 2, LPS 1 μg/ml, compound 12.5 μg/ml, read-out: Intracellular % inhibition
[31] = 1b Experiment 3, LPS 1 μg/ml, compound 6.25 μg/ml, read-out: Intracellular % inhibition
[32] = 1b Experiment 3, LPS 1 μg/ml, compound 12.5 μg/ml, read-out: Intracellular % inhibition
[33] = 1b Experiment 4, LPS 1 μg/ml, compound 3.125 μg/ml
[34] = 1b Experiment 4, LPS 1 μg/ml, compound 6.25 μg/ml, read-out: Intracellular % inhibition
[35] = 1b Experiment 4, LPS 1 μg/ml, compound 12.5 μg/ml, read-out: Intracellular % inhibition

COc1cc(/C=C/C(=O)c2ccc(C3CCCCC3)cc2)cc(OC)c1 [PH104, 3,5-dimethoxy-4′-cyclohexylchalcone]
inhibition at 3.125 µg/mL ([1]; 1b Experiment 2, LPS 1 μg/ml): 82%
inhibition at 6.25 µg/mL ([1]; 1b Experiment 2, LPS 1 μg/ml): 90%
inhibition at 12.5 µg/mL ([1]; 1b Experiment 2, LPS 1 μg/ml): 93%
inhibition at 3.125 µg/mL ([1]; 1b Experiment 3, LPS 1 μg/ml): 54%
inhibition at 6.25 µg/mL ([1]; 1b Experiment 3, LPS 1 μg/ml): 70%
inhibition at 12.5 µg/mL ([1]; 1b Experiment 3, LPS 1 μg/ml): 76%
inhibition at 3.125 µg/mL ([1]; 1b Experiment 4, LPS 1 μg/ml): 0%
inhibition at 6.25 µg/mL ([1]; 1b Experiment 4, LPS 1 μg/ml): 78%
inhibition at 12.5 µg/mL ([1]; 1b Experiment 4, LPS 1 μg/ml): 86%
% TNF-α producing cells [2, 15]: 2.4%
% TNF-α producing cells [2, 16]: 1.4%
% TNF-α producing cells [2, 17]: 2.4%
% TNF-α producing cells [2, 18]: 1.0%
% TNF-α producing cells [2, 19]: 1.7%
% TNFα- producing cells [2, 20]: 2.9%
% TNFα- producing cells [2, 21]: 1.1%
% TNFα- producing cells [2, 22]: 1.2%
% TNF-α producing cells [2, 23]: 3.0%
% TNF-α producing cells [2, 24]: 0.8%
% TNF-α producing cells [2, 25]: 1.0%
inhibition at 12.5 µg/mL [2, 26]: 83%
inhibition at 25 µg/mL [2, 27]: 90%
inhibition at 3.125 µg/mL [2, 28]: 40%
inhibition at 6.25 µg/mL [2, 29]: 75%
inhibition at 12.5 µg/mL [2, 30]: 58%
inhibition at 3.125 µg/mL [2, 20]: 71%
inhibition at 6.25 µg/mL [2, 31]: 89%
inhibition at 12.5 µg/mL [2, 32]: 88%
inhibition at 3.125 µg/mL [2, 33]: 79%
inhibition at 6.25 µg/mL [2, 34]: 95%
inhibition at 12.5 µg/mL [2, 35]: 93%
melting point: 75.5 to 76.2 °C

COc1cc(/C=C/C(=O)c2ccccc2F)cc(OC)c1 [PH135, 2′-fluoro-3,5-dimethoxychalcone]
inhibition at 3.125 µg/mL ([1]; 1b Experiment 2, LPS 1 μg/ml): 96%
inhibition at 6.25 µg/mL ([1]; 1b Experiment 2, LPS 1 μg/ml): 94%
inhibition at 12.5 µg/mL ([1]; 1b Experiment 2, LPS 1 μg/ml): 94%
inhibition at 3.125 µg/mL ([1]; 1b Experiment 3, LPS 1 μg/ml): 93%
inhibition at 6.25 µg/mL ([1]; 1b Experiment 3, LPS 1 μg/ml): 92%
inhibition at 12.5 µg/mL ([1]; 1b Experiment 3, LPS 1 μg/ml): 94%
inhibition at 3.125 µg/mL ([1]; 1b Experiment 4, LPS 1 μg/ml): 99%
inhibition at 6.25 µg/mL ([1]; 1b Experiment 4, LPS 1 μg/ml): 99%
inhibition at 12.5 µg/mL ([1]; 1b Experiment 4, LPS 1 μg/ml): 98%
% TNF-α producing cells ([2]; 1b Experiment 1, LPS 0.5 μg/ml, compound 6.25 μg/ml, DMSO 13.8): 4.1%
% TNF-α producing cells [2, 15]: 2.3%
% TNF-α producing cells [2, 16]: 2.2%
% TNF-α producing cells [2, 17]: 4.3%
% TNF-α producing cells [2, 18]: 1.7%
% TNF-α producing cells [2, 19]: 2.0%
% TNFα- producing cells [2, 20]: 1.7%
% TNFα- producing cells [2, 21]: 1.2%
% TNFα- producing cells [2, 22]: 1.0%
% TNF-α producing cells [2, 23]: 3.5%
% TNF-α producing cells [2, 24]: 2.1%
% TNF-α producing cells [2, 25]: 1.8%
inhibition at 6.25 µg/mL ([2]; 1b Experiment 1, LPS 0.5 μg/ml, compound 6.25 μg/ml, read-out: % inhibition): 70%
inhibition at 12.5 µg/mL [2, 26]: 83%
inhibition at 25 µg/mL [2, 27]: 84%
inhibition at 3.125 µg/mL [2, 28]: 0%
inhibition at 6.25 µg/mL [2, 29]: 58%
inhibition at 12.5 µg/mL [2, 30]: 50%
inhibition at 3.125 µg/mL [2, 20]: 83%
inhibition at 6.25 µg/mL [2, 31]: 88%
inhibition at 12.5 µg/mL [2, 32]: 90%
inhibition at 3.125 µg/mL [2, 33]: 76%
inhibition at 6.25 µg/mL [2, 34]: 86%
inhibition at 12.5 µg/mL [2, 35]: 88%

C=CCOc1ccc(C(=O)/C=C/c2cc(OC)cc(OC)c2)cc1 [SBC-35ma, 3,5-dimethoxy-4′-allyloxychalcone]
Minimum inhibitory concentration, Reovirus-1 [3]: <1/100
Minimum inhibitory concentration, Sindbis virus [4]: <1/100
Minimum inhibitory concentration, Coxsackie virus B4 [5]: <1/100
Minimum inhibitory concentration, Parainfluenza-3 Virus [6]: <1/100
Minimum inhibitory concentration, Simliki forest virus [7]: <1/100
percentages of positive cells for IL-1α ([8]; LPS 1:1000, LPS alone 13): 0%
percentages of positive cells for IL-1α ([8]; SPAG 1:12.5, SPAG alone 11): 0%
percentages of positive cells for TNF-α ([9]; LPS 1:1000, LPS alone 0.30): 0%
percentages of positive cells for TNF-α ([9]; SPAG 1:12.5, SPAG alone 0.96): 0%
percentages of positive cells for IL-1β ([10]; LPS 1:1000, LPS alone 9.1): 0%
percentages of positive cells for IL-1β ([10]; SPAG 1:12.5, SPAG alone 13): 0%
percentages of positive cells for IL-6 ([11]; LPS 1:1000, LPS alone 4.3): 0%
percentages of positive cells for IL-6 ([11]; SPAG 1:12.5, SPAG alone 5.6): 0%
percentages of positive cells for IL-4 ([12]; LPS 1:1000, LPS alone 0): 0%
percentages of positive cells for IL-4 ([12]; SPAG 1:12.5, SPAG alone 0): 0%
toxic effects [13]: No toxic effects
intracellular TNF-α in the cell lysate (ELISA) [14]: no intracellular TNF-α present
